# In paper PMC9481151, “Discovery of new symmetrical and asymmetrical nitrile-containing 1,4-dihydropyridine derivatives as dual kinases and P-glycoprotein inhibitors: synthesis, in vitro assays, and in silico studies” (Journal of Enzyme Inhibition and Medicinal Chemistry, 2022):
# Assays:
# [1] = test system: ACHN; test: NCI single dose (10 µM) SRB screen; format: cell-based, human; conditions: renal cancer, 48 h
# [2] = test system: MOLT-4; test: NCI single dose (10 µM) SRB screen; format: cell-based, human; conditions: leukaemia, 48 h
# [3] = test system: 786-0; test: NCI single dose (10 µM) SRB screen; format: cell-based, human; conditions: renal cancer, 48 h
# [4] = test system: NCI-H522; test: NCI single dose (10 µM) SRB screen; format: cell-based, human; conditions: non-small cell lung cancer, 48 h
# [5] = test system: IGROV1; test: NCI single dose (10 µM) SRB screen; format: cell-based, human; conditions: ovarian cancer, 48 h
# [6] = test system: EKVX; test: NCI single dose (10 µM) SRB screen; format: cell-based, human; conditions: non-small cell lung cancer, 48 h
# [7] = test system: SN12C; test: NCI single dose (10 µM) SRB screen; format: cell-based, human; conditions: renal cancer, 48 h
# [8] = test system: HT29; test: NCI single dose (10 µM) SRB screen; format: cell-based, human; conditions: colon cancer, 48 h
# [9] = test system: UACC-62; test: NCI single dose (10 µM) SRB screen; format: cell-based, human; conditions: melanoma, 48 h
# [10] = test system: NCI-H322M; test: NCI single dose (10 µM) SRB screen; format: cell-based; conditions: non-small cell lung cancer, 48 h
# [11] = test system: OVCAR-4; test: NCI single dose (10 µM) SRB screen; format: cell-based, human; conditions: ovarian cancer, 48 h
# [12] = test system: Escherichia coli; test: Agar well diffusion method
# [13] = test system: Aspergillus flavus; test: Agar well diffusion method
# [14] = test system: UO-31; test: NCI single dose (10 µM) SRB screen; format: cell-based, human; conditions: renal cancer, 48 h
# [15] = test system: MCF7; test: NCI single dose (10 µM) SRB screen; format: cell-based, human; conditions: breast cancer, 48 h
# [16] = test system: NCI-H460; test: NCI single dose (10 µM) SRB screen; format: cell-based, human; conditions: non-small cell lung cancer, 48 h
# [17] = test system: MDA-MB-231; test: NCI single dose (10 µM) SRB screen; format: cell-based, human; conditions: breast cancer, 48 h
# [18] = test system: K-562; test: NCI single dose (10 µM) SRB screen; format: cell-based, human; conditions: leukaemia, 48 h
# [19] = test system: MDA-MB-468; test: NCI single dose (10 µM) SRB screen; format: cell-based, human; conditions: breast cancer, 48 h
# [20] = test system: HCT-15; test: NCI single dose (10 µM) SRB screen; format: cell-based, human; conditions: colon cancer, 48 h
# [21] = test system: SW-620; test: NCI single dose (10 µM) SRB screen; format: cell-based, human; conditions: colon cancer, 48 h
# [22] = test system: COLO 205; test: NCI single dose (10 µM) SRB screen; format: cell-based, human; conditions: colon cancer, 48 h
# [23] = test system: HCT-116; test: NCI single dose (10 µM) SRB screen; format: cell-based, human; conditions: colon cancer, 48 h
# [24] = test system: SF-268; test: NCI single dose (10 µM) SRB screen; format: cell-based, human; conditions: CNS cancer, 48 h
# [25] = test system: NCI-H23; test: NCI single dose (10 µM) SRB screen; format: cell-based, human; conditions: non-small cell lung cancer, 48 h
# [26] = test system: UACC-257; test: NCI single dose (10 µM) SRB screen; format: cell-based, human; conditions: melanoma, 48 h
# [27] = test system: CAKI-1; test: NCI single dose (10 µM) SRB screen; format: cell-based, human; conditions: renal cancer, 48 h
# [28] = test system: KM12; test: NCI single dose (10 µM) SRB screen; format: cell-based, human; conditions: colon cancer, 48 h
# [29] = test system: SR; test: NCI single dose (10 µM) SRB screen; format: cell-based, human; conditions: leukaemia, 48 h
# [30] = test system: SF-539; test: NCI single dose (10 µM) SRB screen; format: cell-based, human; conditions: CNS cancer, 48 h
# [31] = test system: MALME-3M; test: NCI single dose (10 µM) SRB screen; format: cell-based, human; conditions: melanoma, 48 h
# [32] = test system: HCC-2998; test: NCI single dose (10 µM) SRB screen; format: cell-based, human; conditions: colon cancer, 48 h
# [33] = test system: PC-3; test: NCI single dose (10 µM) SRB screen; format: cell-based, human; conditions: prostate cancer, 48 h
# [34] = test system: OVCAR-8; test: NCI single dose (10 µM) SRB screen; format: cell-based, human; conditions: ovarian cancer, 48 h
# [35] = test system: SNB-19; test: NCI single dose (10 µM) SRB screen; format: cell-based, human; conditions: CNS cancer, 48 h
# [36] = test system: A498; test: NCI single dose (10 µM) SRB screen; format: cell-based, human; conditions: renal cancer, 48 h
# [37] = test system: NCI-H226; test: NCI single dose (10 µM) SRB screen; format: cell-based, human; conditions: non-small cell lung cancer, 48 h
# [38] = test system: Candida albicans; test: Agar well diffusion method
# [39] = test system: HOP-92; test: NCI single dose (10 µM) SRB screen; format: cell-based, human; conditions: non-small cell lung cancer, 48 h
# [40] = test system: DU-145; test: NCI single dose (10 µM) SRB screen; format: cell-based, human; conditions: prostate cancer, 48 h
# [41] = test system: OVCAR-5; test: NCI single dose (10 µM) SRB screen; format: cell-based, human; conditions: ovarian cancer, 48 h
# [42] = test system: NCI 60 cancer cell lines; test: NCI single dose (10 µM) SRB screen, mean over panel; format: cell-based, human; conditions: mean over 60 cell lines, 48 h
# [43] = test system: HS578T; test: NCI single dose (10 µM) SRB screen; format: cell-based, human; conditions: breast cancer, 48 h
# [44] = test system: SK-MEL-2; test: NCI single dose (10 µM) SRB screen; format: cell-based, human; conditions: melanoma, 48 h
# [45] = test system: U251; test: NCI single dose (10 µM) SRB screen; format: cell-based, human; conditions: CNS cancer, 48 h
# [46] = test system: OVCAR-3; test: NCI single dose (10 µM) SRB screen; format: cell-based, human; conditions: ovarian cancer, 48 h
# [47] = test system: SK-MEL-5; test: NCI single dose (10 µM) SRB screen; format: cell-based, human; conditions: melanoma, 48 h
# [48] = test system: TK-10; test: NCI single dose (10 µM) SRB screen; format: cell-based, human; conditions: renal cancer, 48 h
# [49] = test system: LOX IMVI; test: NCI single dose (10 µM) SRB screen; format: cell-based, human; conditions: melanoma, 48 h
# [50] = test system: T-47D; test: NCI single dose (10 µM) SRB screen; format: cell-based, human; conditions: breast cancer, 48 h
# [51] = test system: NCI/ADR-RES; test: NCI single dose (10 µM) SRB screen; format: cell-based, human; conditions: ovarian cancer, 48 h
# [52] = test system: RXF 393; test: NCI single dose (10 µM) SRB screen; format: cell-based, human; conditions: renal cancer, 48 h
# [53] = test system: M14; test: NCI single dose (10 µM) SRB screen; format: cell-based, human; conditions: melanoma, 48 h
structure (smiles),measurement,setting,value
"COCCOC(=O)C1=C(C)NC(C)=C(C(=O)OC)C1c1cccc(C#N)c1 (racemic) [Compound 2d, (±)-3-(2-Methoxyethyl) 5-methyl 4-(3-cyanophenyl)-2,6-dimethyl-1,4-dihydropyridine-3,5-dicarboxylate]",GI% ACHN,[1],– (Only GI% ≥ 10 are shown)
same,GI% MOLT-4,[2],– (Only GI% ≥ 10 are shown)
same,GI% 786-0,[3],– (Only GI% ≥ 10 are shown)
same,GI% NCI-H522,[4],– (Only GI% ≥ 10 are shown)
same,GI% IGROV1,[5],– (Only GI% ≥ 10 are shown)
same,GI% EKVX,[6],– (Only GI% ≥ 10 are shown)
same,GI% SN12C,[7],– (Only GI% ≥ 10 are shown)
same,GI% HT29,[8],– (Only GI% ≥ 10 are shown)
same,GI% UACC-62,[9],– (Only GI% ≥ 10 are shown)
same,GI% NCI-H322M,[10],– (Only GI% ≥ 10 are shown)
same,GI% OVCAR-4,[11],– (Only GI% ≥ 10 are shown)
same,zone of inhibition at 1000 µg/mL,"[12]; Escherichia coli, 24 h, read-out: Diameter of inhibition zone, E. coli",10 mm
same,"% activity index, E. coli",[12]; relative to ciprofloxacin,38.5%
same,zone of inhibition at 1000 µg/mL,"[13]; Aspergillus flavus, 24 h, read-out: Diameter of inhibition zone, A. flavus",15 mm
same,"% activity index, A. flavus",[13]; relative to clotrimazole,60%
same,GI% UO-31,[14],– (Only GI% ≥ 10 are shown)
same,GI% MCF7,[15],– (Only GI% ≥ 10 are shown)
same,GI% NCI-H460,[16],– (Only GI% ≥ 10 are shown)
same,GI% MDA-MB-231,[17],– (Only GI% ≥ 10 are shown)
same,GI% K-562,[18],– (Only GI% ≥ 10 are shown)
same,GI% MDA-MB-468,[19],– (Only GI% ≥ 10 are shown)
same,GI% HCT-15,[20],– (Only GI% ≥ 10 are shown)
same,GI% SW-620,[21],– (Only GI% ≥ 10 are shown)
same,GI% COLO 205,[22],– (Only GI% ≥ 10 are shown)
same,GI% HCT-116,[23],– (Only GI% ≥ 10 are shown)
same,GI% SF-268,[24],– (Only GI% ≥ 10 are shown)
same,GI% NCI-H23,[25],– (Only GI% ≥ 10 are shown)
same,GI% UACC-257,[26],– (Only GI% ≥ 10 are shown)
same,GI% CAKI-1,[27],– (Only GI% ≥ 10 are shown)
same,GI% KM12,[28],– (Only GI% ≥ 10 are shown)
same,GI% SR,[29],– (Only GI% ≥ 10 are shown)
same,GI% SF-539,[30],– (Only GI% ≥ 10 are shown)
same,GI% MALME-3M,[31],– (Only GI% ≥ 10 are shown)
same,GI% HCC-2998,[32],– (Only GI% ≥ 10 are shown)
same,GI% PC-3,[33],– (Only GI% ≥ 10 are shown)
same,GI% OVCAR-8,[34],– (Only GI% ≥ 10 are shown)
same,GI% SNB-19,[35],– (Only GI% ≥ 10 are shown)
same,GI% A498,[36],12%
same,GI% NCI-H226,[37],– (Only GI% ≥ 10 are shown)
same,zone of inhibition at 1000 µg/mL,"[38]; Candida albicans, 24 h, read-out: Diameter of inhibition zone, C. albicans",12 mm
same,"% activity index, C. albicans",[38]; relative to clotrimazole,44.4%
same,GI% HOP-92,[39],– (Only GI% ≥ 10 are shown)
same,GI% DU-145,[40],– (Only GI% ≥ 10 are shown)
same,GI% OVCAR-5,[41],– (Only GI% ≥ 10 are shown)
same,Mean GI%,[42],−2%
same,GI% HS578T,[43],– (Only GI% ≥ 10 are shown)
same,GI% SK-MEL-2,[44],– (Only GI% ≥ 10 are shown)
same,GI% U251,[45],– (Only GI% ≥ 10 are shown)
same,GI% OVCAR-3,[46],– (Only GI% ≥ 10 are shown)
same,GI% SK-MEL-5,[47],– (Only GI% ≥ 10 are shown)
same,GI% TK-10,[48],– (Only GI% ≥ 10 are shown)
same,GI% LOX IMVI,[49],– (Only GI% ≥ 10 are shown)
same,GI% T-47D,[50],– (Only GI% ≥ 10 are shown)
same,GI% NCI/ADR-RES,[51],– (Only GI% ≥ 10 are shown)
same,GI% RXF 393,[52],– (Only GI% ≥ 10 are shown)
same,GI% M14,[53],– (Only GI% ≥ 10 are shown)
